Earlier results on 1 compound are cited in patent publication US20220117956A1, “LSD FOR THE TREATMENT OF ALZHEIMER'S DISEASE” (Eleusis Therapeutics US, Inc., priority 2015, published 2022).

The conditions of data set [1]: formulated for immediate release; depending on dosage, tolerance, body weight and age.
The conditions of data set [2]: immediate release LSD dosed at 1 μg/kg.

Consider `CCN(CC)C(=O)[C@@H]1C=C2c3cccc4[nH]cc(c34)C[C@H]2N(C)C1` [LSD, lysergic acid diethylamide], for which the “duration of LSD's effects” value in data set [1] is 6 to 12 h. In data set [2], the apparent plasma half-life was 5.1 h and the “time of peak plasma concentration post-dose” value is 3 h. In addition, in data set [2] (at 3 hours post-dose), the peak plasma concentration is given as 5 ng/mL.
